# How the values were obtained:
# [1] = Conversion of D- into L-phenylalanine; format: in vivo; settings: observed in the pig
# Description: This allows for an estimation of the potential disturbance of the digestion and splanchnic extraction measurements that also involve L-phenylalanine stable isotopes.
# [2] = Ratio of enterally to intravenously provided L-allo-isoleucine isotopologues in blood samples, pig model; format: in vivo
# Method: (§1) Both human and animal models were used for measuring protein absorption in the intestinal walls. The subjects were prepared with indwelling catheters to enable blood sampling. Stable isotopes of amino acids are obtained and made into sterile and pyrogen-free solutions. These isotopes may comprise L-allo-[^2H10, ^15N]-isoleucine, L-allo-[^13C6]-isoleucine, D-1-[^13C]phenylalanine, D-C^3C6]phenylalanine, D-[^2H5]-phenylalanine, D-[2-^2H]phenylalanine. A blood sample is taken or drawn from each subject for a measurement of the natural background. A bolus or continuous infusion of the stable isotope of the amino acid may be used. The labeled amino acid is administered orally to each subject and another isotope of the amino acid nutrient is administered intravenously to the same subject at the same time or within 8 hours. Blood samples are taken or drawn from each subject in the time window of about one to several hours. The labeled amino acids enrichments in each sample are analyzed by Mass Spectrometry. Results from the Mass Spectrometry are applied to a non-compartmental model for analysis and ratio determination. The metabolic phenotype is produced based on the measured amino acids production, consumption and metabolism.
# [3] = Protein absorption in the intestinal walls: ratio of orally to intravenously provided isotopologue in blood, healthy volunteers; format: in vivo, human; settings: FIG. 1
# Method: as §1
structure (smiles),measurement,setting,value
N[C@H](Cc1ccccc1)C(=O)O [D-phenylalanine],conversion rate of D- into L-phenylalanine,[1],10%
[13CH3][13CH2][13C@@H]([13CH3])[13C@H](N)[13C](=O)O [L-allo-[^13C6]-isoleucine],ratio of enterally administered over intravenously administered isotopologue,"[2]; continuously fed pig (4 hours), over intravenously administered L-allo-[^2H10, ^15M-isoleucine, FIG. 4",about 0.8
same,ratio of enterally administered over intravenously administered isotopologue,"[2]; pigs with bolus feeding for 4 hours, over intravenously administered allo-Isoleucine[^2H10, ^15N](M9+M11), FIG. 5",about 0.8
CC[C@@H](C)[C@H](N)C(=O)O [L-allo-isoleucine],absorption ratio of orally provided isotopologue over intravenously provided isotopologue,[3],about 0.8

# Reference: patent publication US20170097335A1, “Methods for Diagnosing Impaired Absorption of Amino Acids, Monosaccharides and Fatty Acids” (The Texas A&M University System, priority 2015, published 2017)
